Measured values as given in paper PMC12549899 (Nature Communications, 2025).
Positions count from the first letter of the chain named.

Tests used:
[1] = target: T1, DrOTOP1 mutants targeting the C-domain pocket (Danio rerio, UniProt Q7ZWK8, G346F/I565W); experiment: Whole-cell patch-clamp, inhibition of acid-evoked currents, other DrOTOP1 C-domain pocket mutants (e.g. G346F, Y422F, L531F, I565W/G346F; Supplementary Fig. 5); type: cell-based, zebrafish (Danio rerio); conditions: DrOTOP1 I565W / G346F; Supp. Fig 5C
T1 construct: A previously generated codon-optimized full-length DrOTOP1[8]; (UniProt: Q7ZWK8) construct; expressed in transfected cells; host or cells: HEK-293 (CRL-1573, ATCC)
T1 sequence (Q7ZWK8 1-586 G346F/I565W): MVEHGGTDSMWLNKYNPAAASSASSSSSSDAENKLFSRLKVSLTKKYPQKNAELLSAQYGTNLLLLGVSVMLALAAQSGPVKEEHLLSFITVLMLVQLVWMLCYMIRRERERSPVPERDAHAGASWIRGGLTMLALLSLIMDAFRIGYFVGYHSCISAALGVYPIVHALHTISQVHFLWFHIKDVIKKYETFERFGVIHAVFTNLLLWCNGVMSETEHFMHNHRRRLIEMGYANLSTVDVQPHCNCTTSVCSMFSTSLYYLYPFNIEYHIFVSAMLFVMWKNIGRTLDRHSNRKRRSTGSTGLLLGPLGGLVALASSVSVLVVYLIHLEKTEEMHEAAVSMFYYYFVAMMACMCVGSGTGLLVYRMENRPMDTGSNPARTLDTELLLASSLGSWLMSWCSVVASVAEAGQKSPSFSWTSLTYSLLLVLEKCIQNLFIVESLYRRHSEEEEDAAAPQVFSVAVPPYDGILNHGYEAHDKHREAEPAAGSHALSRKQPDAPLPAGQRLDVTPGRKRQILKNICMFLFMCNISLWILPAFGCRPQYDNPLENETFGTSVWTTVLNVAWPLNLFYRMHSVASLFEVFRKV
Description: (§1) To experimentally verify whether C11 and C2.2 bind in the C-domain pocket as predicted, we used their docked poses to guide mutagenesis. The predicted interactions for C11 and C2.2 include π-stacking with F342 and Y422, potential H-bonding with Q542, N568, and R572 (Fig. 2J, K and Supplementary Fig. 5A), and hydrophobic packing. We generated single-residue mutants of these and other residues in DrOTOP1 that were expected to disrupt specific molecular interactions or to introduce a bulky tryptophan residue (W) to produce steric hindrance.
(§2) We next tested a subset of these mutants for sensitivity to C2.2, focusing on those that could occlude the C-domain pocket. […]
(§3) Whole-cell patch-clamp recording was performed as previously described[6],[22],[25]. Recordings were made with an Axopatch 200B amplifier, digitized with a Digidata 1322a 16-bit data acquisition system, acquired with pClamp 8.2 and analyzed with Clampfit 10 (Molecular Devices). […]
(§4) All data are presented as mean ± SEM unless otherwise noted, and each data point represents an independent replicant. Inhibition of compounds was quantified as ((I2peak-I1)/(I2peak))*100, where I1 is the current immediately before wash-off and I2peak is the maximum recovered current (Supplementary Fig. 2). Hill coefficients were determined by the following equation: Y = Bmax*X^h/(Kd^h + X^h). […]

[2] = target: T2, DrOTOP1 mutants targeting the C-domain pocket (Danio rerio, UniProt Q7ZWK8, G346F); experiment: as above; type: cell-based, zebrafish (Danio rerio); conditions: 100 µM; DrOTOP1 G346F; compared with WT
T2 construct: A previously generated codon-optimized full-length DrOTOP1[8]; (UniProt: Q7ZWK8) construct; expressed in transfected cells; host or cells: HEK-293 (CRL-1573, ATCC)
T2 sequence (Q7ZWK8 1-586 G346F): T1 sequence (Q7ZWK8 1-586 G346F/I565W) with W565I
Description: as §1, §2, §3, §4

O=C(/C(=N\O)c1ccccc1)c1ccccc1 [C11, benzil monoxime]
inhibition of acid-evoked current, mean (Mean of column R) [1]: 28 | Inhibition of currents [2]: slightly reduced inhibition
